Measured values from US8470770B2, “Antimicrobial agents” (priority 2007, dated 2013).
Converted amounts (≈) assume the structure as drawn. Bridge positions count the residues as written; N and C are the ends. Square brackets hold non-standard residues; d marks the D form. Ends that are not written are not given here. Peptide text beside a SMILES is read from it. 12Ado = NCCCCCCCCCCCC(=O)O

Columns and labels:
[1] = test system: Enterococcus faecalis (ATCC 29212); test: microbe, parasite or virus in culture; format: cell-based
[2] = test system: methicillin resistant Staphylococcus aureus (CI 15903); test: microbe, parasite or virus in culture; conditions: for MIC: Staphylococcus aureus, read-out: MIC MR S.a.; for MIC MR S.a.: methicillin resistant (CI 15903)
Protocol: (§1) Minimal inhibitory concentrations (MICs) were determined by microdilution susceptibility testing in 96-well plates using inocula of 10^6 bacteria per ml.
(§2) Cell populations were evaluated by optical density measurements at 600 nm and were calibrated against a set of standards. Hundred (100) μl of a bacterial suspension were added to 100 μl of culture medium (control) or to 100 μl of culture medium containing various polymer concentrations in 2-fold serial dilutions.
(§3) Alternatively, MICs were determined using the microbroth dilution assay recommended by the Clinical and Laboratory Standards Institute (CLSI) using two-fold serial dilutions in cation-adjusted Mueller-Hinton broth (CAMHB).
“MIC MR S.a.” represents the minimal inhibitory concentration of each tested polymer in μM for methicillin-resistant S. aureus, measured as described hereinabove for the antibacterial activity assay of antibiotic-resistant bacteria (column 8 in Table 3);

[3] = test system: Escherichia coli (ATCC 35218); test: microbe, parasite or virus in culture; conditions: for MIC E.c.: ATCC 35218
Protocol: as §1, §2, §3
“MIC E.c.” represents the minimal inhibitory concentration of each tested polymer in μM for E. coli, measured as described hereinabove in the antibacterial activity assay (column 5 in Table 3);

[4] = Hydrophobicity estimation by HPLC reversed-phase C18 elution; format: physicochemical; conditions: HPLC-RP C18, linear acetonitrile gradient 1% per minute
Protocol: HPLC chromatograms were performed on C18 columns (Vydak, 250 mm×4.6 or 10 mm) using a linear gradient of acetonitrile in water (1% per minute), both solvents contained 0.1% trifluoroacetic acid. The purified polymers were subjected to mass spectrometry (ZQ Waters) to confirm their composition and stored as a lyophilized powder at −20° C. Prior to being tested, fresh solutions were prepared in water, mixed by vortex, solubilized by ultrasound, centrifuged and then diluted in the appropriate medium.
In order to estimate the hydrophobicity of each polymer, the polymer was eluted with a linear gradient of acetonitrile (1% per minute) on an HPLC reversed-phase C18 column, and the percent of acetonitrile at which the polymer was eluted was used for hydrophobicity estimation (see, “ACN (%)” in Table 3 below).
“ACN (%)” represents the percent of acetonitrile in the HPLC-RP gradient mobile phase at which the polymer was eluted and which corresponds to the estimated hydrophobicity of the polymer (column 4 in Table 3);

[5] = test system: Pseudomonas aeruginosa (ATCC 9027); test: microbe, parasite or virus in culture; conditions: for MIC P.a.: ATCC 9027
Protocol: as §1, §2, §3
“MIC P.a.” represents the minimal inhibitory concentration of each tested polymer in μM for P. aeruginosa, measured as described hereinabove for the antibacterial activity assay (column 7 in Table 3);

[6] = test system: Bacillus cereus (ATCC 11778)
Protocol: as §1, §2, §3
“MIC B.c.” represents the minimal inhibitory concentration of each tested polymer in μM for Bacillus cereus, measured as described hereinabove for the antibacterial activity assay (column 9 in Table 3); and […]

| Compound | MIC ([1]; ATCC 29212) [µM] | MIC E.c. [3] [µM] | ACN (%) (percent of acetonitrile at which the polymer was eluted; estimated hydrophobicity) [4] | MIC P.a. [5] [µM] | MIC MR S.a. [2] [µM] | further results |
| --- | --- | --- | --- | --- | --- | --- |
| C[C@@H](O)[C@H]1C(=O)N2C(C(=O)O)=C(SCCN=CN)C[C@H]12 [Ref. 6, Imipenem, reference compound] |  |  |  |  |  | MIC ([1]; Enterococcus faecalis, ATCC29212): < 0.03 µM; MIC [2]: > 50 µM |
| NCCCC[C@@H]1NC(=O)CCCCCCCCCCCNC(=O)[C@H](CCCCN)NC(=O)[C@H](CCCCN)NC(=O)[C@H](CCCCN)NC(=O)CCCCCCCCCCCNC(=O)[C@H](CCCCN)NC1=O [Polymer 11, Cyclic-KNC12KKKNC12K] (cyclo(K[12Ado]KKK[12Ado]K)) | >50 | >50 | 38 | 12.5 (≈ 12.9 µg/mL) | >50 |  |
| NCCCCC1NC(=O)CCCCCCCCCCCNC(=O)C(CCCCN)NC(=O)CCCCCCCCCCCNC(=O)C(CCCCN)NC(=O)CCCCCCCCCCCNC(=O)C(CCCCN)NC(=O)CCCCCCCCCCCNC(=O)C(CCCCN)NC(=O)CCCCCCCCCCCNC1=O (stereo not shown) [Polymer 6, Cyclic-(NC12K)5] |  |  | 47.7 | 50 (≈ 81.4 µg/mL) |  | MIC B.c [6]: >50 µM |
| GIGKFLKKAKKFGKAFVKILKK-NH2 (C-terminus assumed) [Ref. 1, MSI-78, reference compound] | 37.5 |  | 44 |  |  |  |
| NCCCC[C@@H]1NC(=O)CCCCCCCCCCCNC(=O)[C@H](CCCCN)NC(=O)[C@H](CCCCN)NC(=O)[C@H](CCCCN)NC(=O)CCCCCCCCCCCNC(=O)[C@H](CCCCN)NC(=O)[C@H](CCCCN)NC1=O [Polymer 12, Cyclic-KNC12KKKNC12KK] (cyclo(K[12Ado]KKK[12Ado]KK)) | >50 | >50 | 35 | >50 | >50 |  |
| NCCCCC1NC(=O)CCCCCCCCCCCNC(=O)C(CCCCN)NC(=O)CCCCCCCCCCCNC(=O)C(CCCCN)NC(=O)CCCCCCCCCCCNC1=O (stereo not shown) [Polymer 4, Cyclic-(NC12K)3] |  | >50 | 47.0 | >50 | 12.5 (≈ 12.2 µg/mL) | MIC B.c [6]: >50 µM |
| NCCCCC1NC(=O)CCCCCCCCCCCNC(=O)C(CCCCN)NC(=O)C(CCCCN)NC(=O)CCCCCCCCCCCNC(=O)C(CCCCN)NC1=O (stereo not shown) [Polymer 7, Cyclic-(KNC12K)2] (cyclo([12Ado]KK[12Ado]KK); configuration not given here) | 50 (≈ 45.4 µg/mL) |  | 40.7 | 25 (≈ 22.7 µg/mL) |  |  |
| NCCCC[C@@H]1NC(=O)CCCCCCCCCCCNC(=O)[C@H](CCCCN)NC(=O)CCCCCCCCCCCNC(=O)[C@H](CCCCN)NC(=O)CCCCCCCCCCCNC(=O)[C@H](CCCCN)NC(=O)[C@H](CCCCN)NC(=O)CCCCCCCCCCCNC(=O)[C@H](CCCCN)NC(=O)CCCCCCCCCCCNC1=O [Polymer 2, Cyclic-K(NC12K)5] (cyclo(K[12Ado]K[12Ado]K[12Ado]K[12Ado]K[12Ado]K)) | 6.25 (≈ 11 µg/mL) | 12.5 (≈ 21.9 µg/mL) | 46.6 | 12.5 (≈ 21.9 µg/mL) | 6.25 (≈ 11 µg/mL) |  |
| NCCCCC1NC(=O)CCCCCCCCCCCNC(=O)C(CCCCN)NC(=O)CCCCCCCCCCCNC1=O (stereo not shown) [Polymer 3, Cyclic-(NC12K)2] | >50 |  | 49.7 | >50 |  |  |
| NCCCC[C@@H]1NC(=O)CCCCCCCCCCCNC(=O)[C@H](CCCCN)NC(=O)[C@H](CCCCN)NC(=O)CCCCCCCCCCCNC(=O)[C@H](CCCCN)NC(=O)[C@H](CCCCN)NC(=O)CCCCCCCCCCCNC(=O)[C@H](CCCCN)NC1=O [Polymer 8, Cyclic-(KNC12K)3] (cyclo(K[12Ado]KK[12Ado]KK[12Ado]K)) | 25 (≈ 34 µg/mL) | 25 (≈ 34 µg/mL) | 41.7 | 12.5 (≈ 17 µg/mL) | 25 (≈ 34 µg/mL) |  |
| NCCCCC1NC(=O)CCCCCCCCCCCNC(=O)C(CCCCN)NC(=O)C(CCCCN)NC(=O)CCCCCCCCCCCNC1=O (stereo not shown) [Polymer 9, Cyclic-NC12KKNC12K] (cyclo([12Ado]K[12Ado]KK); configuration not given here) | 25 (≈ 19.5 µg/mL) |  | 42.7 | 50 (≈ 39 µg/mL) |  |  |
| CC(C)C[C@H](NC(=O)CNC(=O)CNC(=O)[C@@H](N)CCCNC(=N)N)C(=O)N[C@H]1CSSC[C@@H](C(=O)N[C@H](C(=O)NCC(=O)N[C@@H](CCCNC(=N)N)C(N)=O)C(C)C)NC(=O)[C@H](C(C)C)NC(=O)[C@@H]2CSSC[C@H](NC(=O)[C@H](Cc3ccc(O)cc3)NC1=O)C(=O)N[C@@H](CCCNC(=N)N)C(=O)NCC(=O)N[C@@H](CCCNC(=N)N)C(=O)N[C@@H](Cc1ccccc1)C(=O)N2 [Ref. 2, IB-367, reference compound] (H-RGGLCYCRGRFCVCVGR-NH2; disulfide 5-14, 7-12) |  |  | 45 |  |  |  |
| CC[C@H](C)[C@H](NC(=O)[C@H](CCCCN)NC(=O)[C@H](CCC(=O)O)NC(=O)[C@H](CCCCN)NC(=O)[C@H](CO)NC(=O)[C@H](CCCCN)NC(=O)[C@H](CCCNC(=N)N)NC(=O)[C@H](Cc1ccccc1)NC(=O)[C@H](Cc1ccccc1)NC(=O)[C@H](CC(=O)O)NC(=O)CNC(=O)[C@H](CC(C)C)NC(=O)[C@@H](N)CC(C)C)C(=O)NCC(=O)N[C@@H](CCCCN)C(=O)N[C@@H](CCC(=O)O)C(=O)N[C@@H](Cc1ccccc1)C(=O)N[C@@H](CCCCN)C(=O)N[C@@H](CCCNC(=N)N)C(=O)N[C@H](C(=O)N[C@H](C(=O)N[C@@H](CCC(N)=O)C(=O)N[C@@H](CCCNC(=N)N)C(=O)N[C@H](C(=O)N[C@@H](CCCCN)C(=O)N[C@@H](CC(=O)O)C(=O)N[C@@H](Cc1ccccc1)C(=O)N[C@@H](CC(C)C)C(=O)N[C@@H](CCCNC(=N)N)C(=O)N[C@@H](CC(N)=O)C(=O)N[C@@H](CC(C)C)C(=O)N[C@H](C(=O)N1CCC[C@H]1C(=O)N[C@@H](CCCNC(=N)N)C(=O)N[C@H](C(=O)N[C@@H](CCC(=O)O)C(=O)N[C@@H](CO)C(=O)O)[C@@H](C)O)C(C)C)[C@@H](C)CC)C(C)C)[C@@H](C)CC [Ref. 4, LL37, reference compound] |  |  | 61 |  |  | MIC ([1]; Enterococcus faecalis): 37.5 µM (≈ 169 µg/mL) |
| CCCCCCCCCCCC(=O)NCCCCC(N)C(=O)NCCCCCCCCCCCC(=O)NCCCCC(N)C(N)=O (stereo not shown) [Polymer 13, C12K(ε)NC12K(ε)NH2] | 12.5 (≈ 8.16 µg/mL) | 12.5 (≈ 8.16 µg/mL) | 54.4 | >50 | 12.5 (≈ 8.16 µg/mL) |  |
| NCCCC[C@@H]1NC(=O)CCCCCCCCCCCNC(=O)[C@H](CCCCN)NC(=O)[C@H](CCCCN)NC(=O)CCCCCCCCCCCNC(=O)[C@H](CCCCN)NC(=O)[C@H](CCCCN)NC(=O)CCCCCCCCCCCNC1=O [Polymer 10, Cyclic-NC12K(KNC12K)2] (cyclo([12Ado]KK[12Ado]KK[12Ado]K)) | 6.25 (≈ 7.71 µg/mL) | 12.5 (≈ 15.4 µg/mL) | 43.1 | 12.5 (≈ 15.4 µg/mL) | 12.5 (≈ 15.4 µg/mL) |  |
| ALWKTLLKKVLKAAAK-NH2 (C-terminus assumed) [Ref. 3, K4S4(1-16), reference compound] | 3.1 |  | 47 |  |  |  |
| CN(C)[C@@H]1C(O)=C(C(N)=O)C(=O)[C@@]2(O)C(O)=C3C(=O)c4c(O)cccc4[C@@](C)(O)[C@H]3C[C@@H]12 [Ref. 7, Tetracycline, reference compound] |  |  |  |  |  | MIC ([3]; Escherichia coli, ATCC35218, read-out: MIC E.c.): 1.8 µM (≈ 0.8 µg/mL); MIC ([5]; Pseudomonas aeruginosa, ATCC9027, read-out: MIC P.a.): > 50 µM; MIC [2]: 0.4 µM (≈ 0.178 µg/mL) |
| NCCCCC1NC(=O)CCCCCCCCCCCNC(=O)C(CCCCN)NC(=O)CCCCCCCCCCCNC(=O)C(CCCCN)NC(=O)CCCCCCCCCCCNC(=O)C(CCCCN)NC(=O)CCCCCCCCCCCNC1=O (stereo not shown) [Polymer 5, Cyclic-(NC12K)4] |  | >50 | 47.4 | >50 | >50 | MIC B.c [6]: >50 µM |
